Test results published in patent US9765034B2, “5-halogenopyrazole biphenylcarboxamides” (BAYER CROPSCIENCE AG, priority 2012, dated 2017).

Key:
Septoria tritici = assay: In vivo preventive test on Septoria tritici (leaf spot on wheat); settings: wheat plants, preventive spray, 500 ppm, grading 24 days after contamination
Method: Example: In Vivo Preventive Test on Septoria tritici (Leaf Spot on Wheat) […] Wheat plants (“Scipion” variety), sown in starter cups on a 50/50 peat soil-pozzolana substrate and grown at 22° C., are treated at the 1-leaf stage (10 cm height) by spraying with the active ingredient prepared as described above. Plants, used as controls, are treated with the mixture of acetone/tween/DMSO/water not containing the active material. After 24 hours, the plants are contaminated by spraying the leaves with an aqueous suspension of cryopreserved Septoria tritici spores (500 000 spores per ml). […] Grading (% of efficacy) is carried out 24 days after the contamination, in comparison with the control plants. Under these conditions, good (at least 70%) or total protection is observed at a dose of 500 ppm with the following compounds: […]

Uromyces appendiculatus = assay: In vivo preventive test on Uromyces appendiculatus (bean rust); settings: bean plants, preventive spray, 500 ppm, grading 11 days after contamination
Method: Example: In Vivo Preventive Test on Uromyces appendiculatus (Bean Rust) […] Bean plants (“Saxa” variety), sown in starter cups on a 50/50 peat soil-pozzolana substrate and grown at 24° C., are treated at the 2-leaf stage (9 cm height) by spraying with the active ingredient prepared as described above. Plants, used as controls, are treated with the mixture of acetone/tween/DMSO/water not containing the active material. After 24 hours, the plants are contaminated by spraying the leaves with an aqueous suspension of Uromyces appendiculatus spores (150 000 spores per ml). […] Grading (% of efficacy) is carried out 11 days after the contamination, in comparison with the control plants. Under these conditions, good (at least 70%) or total protection is observed at a dose of 500 ppm with the following compounds: […]

Pyrenophora teres = assay: In vivo preventive test on Pyrenophora teres (net blotch on barley); settings: barley plants, preventive spray, 500 ppm, grading 14 days after contamination
Method: Example: In Vivo Preventive Test on Pyrenophora teres (Net Blotch on Barley) […] Barley plants (“Plaisant” variety), sown in starter cups on a 50/50 peat soil-pozzolana substrate and grown at 22° C., are treated at the 1-leaf stage (10 cm height) by spraying with the active ingredient prepared as described above. Plants, used as controls, are treated with the mixture of acetone/tween/DMSO/water not containing the active material. After 24 hours, the plants are contaminated by spraying the leaves with an aqueous suspension of Pyrenophora teres spores (12 000 spores per ml). The spores are collected from a 12-day-old culture. […] Grading (% of efficacy) is carried out 14 days after the contamination, in comparison with the control plants. Under these conditions, good (at least 70%) or total protection is observed at a dose of 500 ppm with the following compounds: […]

Sphaerotheca fuliginea = assay: In vivo preventive test on Sphaerotheca fuliginea (powdery mildew on cucurbits); settings: gherkin plants, preventive spray, 500 ppm, grading 12 days after contamination
Method: Example: In Vivo Preventive Test on Sphaerotheca fuliginea (Powdery Mildew on Cucurbits) […] Gherkin plants (“Vert petit de Paris” variety), sown in starter cups on a 50/50 peat soil-pozzolana substrate and grown at 24° C., are treated at the Z11 cotyledon stage by spraying with the active ingredient prepared as described above. Plants, used as controls, are treated with the mixture of acetone/tween/DMSO/water not containing the active material. After 24 hours, the plants are contaminated by spraying the cotyledons with an aqueous suspension of Sphaerotheca fuliginea spores (100 000 spores per ml). The spores are collected from infected plants. […] Grading (% of efficacy) is carried out 12 days after the contamination, in comparison with the control plants. Under these conditions, good (at least 70%) or total protection is observed at a dose of 500 ppm with the following compounds: […]

Puccinia recondita = assay: In vivo preventive test on Puccinia recondita (brown rust on wheat); settings: wheat plants, preventive spray, 500 ppm, grading 12 days after contamination
Method: Example: In Vivo Preventive Test on Puccinia recondita (Brown Rust on Wheat) […] Wheat plants (“Scipion” variety), sown in starter cups on a 50/50 peat soil-pozzolana substrate and grown at 22° C., are treated at the 1-leaf stage (10 cm height) by spraying with the active ingredient prepared as described above. Plants, used as controls, are treated with the mixture of acetone/tween/DMSO/water not containing the active material. After 24 hours, the plants are contaminated by spraying the leaves with an aqueous suspension of Puccinia […] spores (100 000 spores per ml). […] Grading (% of efficacy) is carried out 12 days after the contamination, in comparison with the control plants. Under these conditions, good (at least 70%) or total protection is observed at a dose of 500 ppm with the following compounds: […]

physchem = settings: pH 2.7
Pyricularia oryzae = format: in vivo; settings: rice plants, preventive spray, 500 ppm, grading 6 days after contamination
Phytophthora infestans = format: in vivo; settings: tomato plants, preventive spray, 500 ppm, grading 5 days after contamination
[1] = logP by HPLC on reversed phase columns (EEC directive 79/831 Annex V.A8); settings: method [a]: LC-MS at pH 2.7, 0.1% formic acid in water / acetonitrile gradient 10% to 95%
[2] = system: Fusarium nivale (var. majus); assay: In vivo Fusarium nivale (var. majus) test (wheat)/preventive; settings: preventive, 500 ppm of active ingredient, evaluated 5 days after inoculation
Method: (§1) Example: In Vivo Fusarium nivale (Var. Majus)-Test (Wheat)/Preventive Solvent: 49 parts by weight of N,N-dimethylacetamide Emulsifier: 1 part by weight of alkylaryl polyglycol ether To produce a suitable preparation of active compound, 1 part by weight of active compound or active compound combination is mixed with the stated amounts of solvent and emulsifier, and the concentrate is diluted with water to the desired concentration. To test for preventive activity, young plants are sprayed with the preparation of active compound or active compound combination at the stated rate of application. After the spray coating has been dried, the plants are slightly injured by using a sandblast and afterwards to they are sprayed with a conidia suspension of Fusarium nivale (var. majus).

Phakopsora pachyrhizi = assay: In vivo Phakopsora test (soybeans)/preventive; settings: preventive, 100 ppm of active ingredient, evaluated 7 days after inoculation
Method: Example: In Vivo Phakopsora Test (Soybeans)/Preventive Solvent: 24.5 parts by weight of acetone • 24.5 parts by weight of dimethylacetamide Emulsifier: • 1 part by weight of alkylaryl polyglycol ether To produce a suitable preparation of active compound, 1 part by weight of active compound is mixed with the stated amounts of solvent and emulsifier, and the concentrate is diluted with water to the desired concentration. To test for preventive activity, young plants are sprayed with the preparation of active compound at the stated rate of application. After the spray coating has dried on, the plants are inoculated with an aqueous to spore suspension of the causal agent of soybean rust (Phakopsora pachyrhizi) and stay for 24 h without light in an incubation cabinet at approximately 24° C. and a relative atmospheric humidity of 95%.

Leptosphaeria nodorum = assay: In vivo Leptosphaeria nodorum test (wheat)/preventive; settings: preventive, 500 ppm of active ingredient, evaluated 8 days after inoculation
Method: as §1, with “Leptosphaeria nodorum Test” for “Fusarium nivale (Var. Majus)-Test”, “are” for “are slightly injured by using a sandblast and afterwards to they are”, “spore” for “conidia”, “Leptosphaeria nodorum.” for “Fusarium nivale (var. majus).”

Botrytis cinerea = assay: In vivo preventive test on Botrytis cinerea (grey mould); settings: gherkin plants, preventive spray, 500 ppm, grading 4 to 5 days after contamination
Method: Example: In Vivo Preventive Test on Botrytis cinerea (Grey Mould) […] Gherkin plants (“Vert petit de Paris” variety), sown in starter cups on a 50/50 peat soil-pozzolana substrate and grown at 24° C., are treated at the Z11 cotyledon stage by spraying with the active ingredient prepared as described above. Plants, used as controls, are treated with the mixture of acetone/tween/DMSO/water not containing the active material. After 24 hours, the plants are contaminated by spraying the cotyledons with an aqueous suspension of cryopreserved Botrytis cinerea spores (50 000 spores per ml). The spores are suspended in a nutrient solution composed of 10 g/L of PDB, 50 g/L of D-Fructose, 2 g/L of NH4NO3 and 1 g/L of KH2PO4. […] Grading (% of efficacy) is carried out 4 to 5 days after the contamination, in comparison with the control plants. Under these conditions, good (at least 70%) or total protection is observed at a dose of 500 ppm with the following compounds: […]

[3] = system: Blumeria graminis fsp. hordei; assay: In vivo Blumeria test (barley)/preventive; settings: preventive, 500 ppm of active ingredient, evaluated 7 days after inoculation
Method: as §1, with “Blumeria Test (Barley)/Preventive” for “Fusarium nivale (Var. Majus)-Test (Wheat)/Preventive”, “dusted” for “slightly injured by using a sandblast and afterwards to they are sprayed”, “spores” for “a conidia suspension”, “Blumeria graminis fsp. hordei.” for “Fusarium nivale (var. majus).”

Row | SMILES | Eff. % (Septoria tritici) | Eff. % (Uromyces appendiculatus) | Eff. % (Pyrenophora teres) | Eff. % (Sphaerotheca fuliginea) | Eff. % (Puccinia recondita) | chromatographic logP (physchem) | Eff. % (Pyricularia oryzae) | Eff. % (Phytophthora infestans) | logP [1] | Eff. % [2] | Eff. % (Phakopsora pachyrhizi) | Eff. % (Leptosphaeria nodorum) | Eff. % (Botrytis cinerea) | Eff. % [3]
1 | CON=Cc1ccc(-c2ccccc2NC(=O)c2c(C(F)F)nn(C)c2F)cc1 [Example 9, 5-fluoro-3-(difluoromethyl)-N-{4′-[(methoxyimino)methyl]biphenyl-2-yl}-1-methyl-1H-pyrazole-4-carboxamide] | 80% | 100% | 79% | 100% | 100% | 3.46 | 80% | – | – | – | – | – | – | –
2 | C#CCON=Cc1ccc(-c2ccccc2NC(=O)c2c(C(F)F)nn(C)c2F)cc1 [Example 4] | 95% | 100% | 100% | 100% | 100% | – | 80% | 100% | 3.55[a] | 80% | – | – | – | –
3 | CCON=C(c1ccc(-c2ccccc2NC(=O)c2c(C(F)F)nn(C)c2F)cc1)C(F)(F)F [Example 29] | – | 100% | 97% | 100% | 97% | – | 83% | – | 4.46[a] | 86% | 91% | – | – | –
4 | CCON=Cc1ccc(-c2ccccc2NC(=O)c2c(C(F)F)nn(C)c2F)cc1 [Example 7] | – | 100% | 100% | 100% | 94% | – | 90% | – | 3.87[a] | – | – | 90% | 85% | 100%
5 | CON=Cc1ccc(-c2ccccc2NC(=O)c2c(C(F)F)nn(C)c2Cl)cc1 [Example 8] | 100% | 100% | 97% | 100% | 100% | – | 80% | – | 4.18[a] | – | – | – | 73% | 100%
